Measurements from patent publication US6653307B2, “1-aryl-4-oxo-1,4-dihydro-3-quinolinecarboxamides as antiviral agents” (Pharmacia & Upjohn Company, priority 2000, dated 2003).

What was measured:
HCMV polymerase = target: T1, HCMV polymerase (Human cytomegalovirus, UniProt P08546); test: HCMV polymerase scintillation proximity assay (SPA); assay type: biochemical; details: 3H-dTTP incorporation
T1 construct: made in house; host or cells: recombinant baculovirus-infected SF-9 cells
Experimental: (§1) The HCMV polymerase assay is performed using a scintillation proximity assay (SPA) as described in several references, such as N.D. Cook, et al., Pharmaceutical Manufacturing International, pages 49-53 (1992); K. Takeuchi, Laboratory Practice, September issue (1992); U.S. Pat. No. 4,568,649 (1986); which are incorporated by reference herein. Reactions are performed in 96-well plates. The assay is conducted in 100 μl volume with 5.4 mM HEPES (pH 7.5), 11.7 mM KCl, 4.5 mM MgCl2, 0.36 mg/ml BSA, and 90 nM ^3H-dTTP. Assays are run with and without CHAPS, (3-[(3-cholamidopropyl)-dimethylammonio]-1-propane-sulfonate) at a final concentration of 2 mM. HCMV polymerase is diluted in enzyme dilution buffer containing 50% glycerol, 250 mM NaCl, 10 mM HEPES (pH 7.5), 100 μg/ml BSA, and 0.01% sodium azide. The HCMV polymerase, which is expressed in recombinant baculovirus-infected SF-9 cells and purified according to literature procedures, is added at 10% (or 10 μl) of the final reaction volume, i.e., […]. Compounds are diluted in 50% DMSO and 10 μl are added to each well. Control wells contain an equivalent concentration of DMSO. Unless noted otherwise, reactions are initiated via the addition of 6 nM biotinylated poly(dA)-oligo(dT) template/primer to reaction mixtures containing the enzyme, substrate, and compounds of interest. Plates are incubated in a 25 C or 37 C H2O bath and terminated via the addition of 40 μl/reaction of 0.5 M EDTA (pH 8) per well. Reactions are terminated within the time-frame during which substrate incorporation is linear and varied depending upon the enzyme and conditions used, i.e., 30 min. for HCMV polymerase. Ten μl of streptavidin-SPA beads (20 mg/ml in PBS/10% glycerol) are added following termination of the reaction. Plates are incubated 10 min. at 37 C, then equilibrated to room temperature, and counted on a Packard Topcount. Linear regressions are performed and IC50's are calculated using computer software. A modified version of the above HCMV polymerase assay is performed as described above, but with the following changes: Compounds are diluted in 100% DMSO until final dilution into assay buffer. In the previous assay, compounds are diluted in 50% DMSO. 4.5 mM dithiotherotol (DTT) is added to the polymerase buffer.

VZV polymerase = VZV polymerase (Varicella-zoster virus, UniProt P09252); test: VZV polymerase assay (Table 1); assay type: biochemical
Experimental: [Worded in the source for another target; this target is reported under the same test.] as §1

HSV polymerase = HSV polymerase (Human herpesvirus 1, UniProt P04293); test: HSV polymerase assay (Table 1); assay type: biochemical
Experimental: [Worded in the source for another target; this target is reported under the same test.] as §1

HSV polymerase, sequence (P04293 whole entry): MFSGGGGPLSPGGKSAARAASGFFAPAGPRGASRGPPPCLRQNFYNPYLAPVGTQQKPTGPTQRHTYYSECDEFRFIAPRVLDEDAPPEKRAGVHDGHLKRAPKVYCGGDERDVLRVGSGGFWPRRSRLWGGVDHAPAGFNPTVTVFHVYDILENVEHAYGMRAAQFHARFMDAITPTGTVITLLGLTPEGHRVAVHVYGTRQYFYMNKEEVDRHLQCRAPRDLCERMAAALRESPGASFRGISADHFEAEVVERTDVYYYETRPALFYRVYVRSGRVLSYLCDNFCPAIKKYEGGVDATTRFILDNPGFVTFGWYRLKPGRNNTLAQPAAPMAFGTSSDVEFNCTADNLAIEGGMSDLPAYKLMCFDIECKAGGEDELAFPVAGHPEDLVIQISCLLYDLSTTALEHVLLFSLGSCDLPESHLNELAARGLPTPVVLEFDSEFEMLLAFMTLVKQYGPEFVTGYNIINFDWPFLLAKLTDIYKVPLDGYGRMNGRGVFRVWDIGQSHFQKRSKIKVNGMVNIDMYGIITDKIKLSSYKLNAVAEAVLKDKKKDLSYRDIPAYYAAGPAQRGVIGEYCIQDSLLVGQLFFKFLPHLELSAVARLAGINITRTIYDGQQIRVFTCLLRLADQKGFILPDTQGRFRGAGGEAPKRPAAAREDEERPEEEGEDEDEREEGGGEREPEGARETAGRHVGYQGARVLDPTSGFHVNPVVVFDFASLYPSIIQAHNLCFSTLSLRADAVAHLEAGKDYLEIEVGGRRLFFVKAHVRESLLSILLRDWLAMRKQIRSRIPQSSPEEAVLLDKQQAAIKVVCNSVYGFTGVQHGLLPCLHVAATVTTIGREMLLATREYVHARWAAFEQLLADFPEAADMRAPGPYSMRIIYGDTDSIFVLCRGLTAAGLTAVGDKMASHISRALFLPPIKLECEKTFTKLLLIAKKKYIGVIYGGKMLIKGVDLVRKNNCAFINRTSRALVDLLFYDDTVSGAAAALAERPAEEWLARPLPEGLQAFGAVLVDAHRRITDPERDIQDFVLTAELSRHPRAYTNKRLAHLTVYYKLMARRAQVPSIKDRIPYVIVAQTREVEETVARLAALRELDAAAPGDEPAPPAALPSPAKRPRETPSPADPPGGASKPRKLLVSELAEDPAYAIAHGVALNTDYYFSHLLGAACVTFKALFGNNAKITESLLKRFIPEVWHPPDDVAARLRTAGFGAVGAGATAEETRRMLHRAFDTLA
T1 sequence (P08546 whole entry): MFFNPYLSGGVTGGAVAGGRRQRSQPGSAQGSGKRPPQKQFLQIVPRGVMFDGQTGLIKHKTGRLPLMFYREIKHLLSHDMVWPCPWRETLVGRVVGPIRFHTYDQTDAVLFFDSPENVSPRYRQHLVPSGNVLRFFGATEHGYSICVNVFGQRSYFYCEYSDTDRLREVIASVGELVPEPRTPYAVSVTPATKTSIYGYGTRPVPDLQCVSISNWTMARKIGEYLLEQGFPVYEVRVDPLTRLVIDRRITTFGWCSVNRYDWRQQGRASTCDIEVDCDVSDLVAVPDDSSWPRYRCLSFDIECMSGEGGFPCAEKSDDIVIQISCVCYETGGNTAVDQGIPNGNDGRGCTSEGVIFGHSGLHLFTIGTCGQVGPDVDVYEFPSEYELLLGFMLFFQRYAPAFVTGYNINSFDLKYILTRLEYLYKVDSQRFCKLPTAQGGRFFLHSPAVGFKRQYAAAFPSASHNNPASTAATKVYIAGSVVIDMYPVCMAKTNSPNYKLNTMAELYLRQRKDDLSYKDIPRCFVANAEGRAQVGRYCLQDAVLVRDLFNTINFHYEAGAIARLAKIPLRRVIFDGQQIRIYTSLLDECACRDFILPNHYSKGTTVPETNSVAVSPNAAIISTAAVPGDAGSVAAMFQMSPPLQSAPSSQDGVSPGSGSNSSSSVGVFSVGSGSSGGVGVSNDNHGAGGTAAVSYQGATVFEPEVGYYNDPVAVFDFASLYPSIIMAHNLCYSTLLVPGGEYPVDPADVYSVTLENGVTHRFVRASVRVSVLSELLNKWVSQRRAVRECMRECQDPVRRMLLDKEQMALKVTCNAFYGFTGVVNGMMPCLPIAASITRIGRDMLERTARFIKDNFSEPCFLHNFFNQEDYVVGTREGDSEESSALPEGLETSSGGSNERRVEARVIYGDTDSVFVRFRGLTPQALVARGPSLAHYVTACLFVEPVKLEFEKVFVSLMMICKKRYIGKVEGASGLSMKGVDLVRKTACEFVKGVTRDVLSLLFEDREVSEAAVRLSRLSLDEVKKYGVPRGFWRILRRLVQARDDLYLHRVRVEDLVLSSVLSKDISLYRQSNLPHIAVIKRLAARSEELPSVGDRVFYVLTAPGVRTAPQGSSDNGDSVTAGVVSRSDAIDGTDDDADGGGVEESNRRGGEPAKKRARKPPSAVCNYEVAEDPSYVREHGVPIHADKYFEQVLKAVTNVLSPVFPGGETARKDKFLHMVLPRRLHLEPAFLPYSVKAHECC
VZV polymerase, sequence (P09252 whole entry): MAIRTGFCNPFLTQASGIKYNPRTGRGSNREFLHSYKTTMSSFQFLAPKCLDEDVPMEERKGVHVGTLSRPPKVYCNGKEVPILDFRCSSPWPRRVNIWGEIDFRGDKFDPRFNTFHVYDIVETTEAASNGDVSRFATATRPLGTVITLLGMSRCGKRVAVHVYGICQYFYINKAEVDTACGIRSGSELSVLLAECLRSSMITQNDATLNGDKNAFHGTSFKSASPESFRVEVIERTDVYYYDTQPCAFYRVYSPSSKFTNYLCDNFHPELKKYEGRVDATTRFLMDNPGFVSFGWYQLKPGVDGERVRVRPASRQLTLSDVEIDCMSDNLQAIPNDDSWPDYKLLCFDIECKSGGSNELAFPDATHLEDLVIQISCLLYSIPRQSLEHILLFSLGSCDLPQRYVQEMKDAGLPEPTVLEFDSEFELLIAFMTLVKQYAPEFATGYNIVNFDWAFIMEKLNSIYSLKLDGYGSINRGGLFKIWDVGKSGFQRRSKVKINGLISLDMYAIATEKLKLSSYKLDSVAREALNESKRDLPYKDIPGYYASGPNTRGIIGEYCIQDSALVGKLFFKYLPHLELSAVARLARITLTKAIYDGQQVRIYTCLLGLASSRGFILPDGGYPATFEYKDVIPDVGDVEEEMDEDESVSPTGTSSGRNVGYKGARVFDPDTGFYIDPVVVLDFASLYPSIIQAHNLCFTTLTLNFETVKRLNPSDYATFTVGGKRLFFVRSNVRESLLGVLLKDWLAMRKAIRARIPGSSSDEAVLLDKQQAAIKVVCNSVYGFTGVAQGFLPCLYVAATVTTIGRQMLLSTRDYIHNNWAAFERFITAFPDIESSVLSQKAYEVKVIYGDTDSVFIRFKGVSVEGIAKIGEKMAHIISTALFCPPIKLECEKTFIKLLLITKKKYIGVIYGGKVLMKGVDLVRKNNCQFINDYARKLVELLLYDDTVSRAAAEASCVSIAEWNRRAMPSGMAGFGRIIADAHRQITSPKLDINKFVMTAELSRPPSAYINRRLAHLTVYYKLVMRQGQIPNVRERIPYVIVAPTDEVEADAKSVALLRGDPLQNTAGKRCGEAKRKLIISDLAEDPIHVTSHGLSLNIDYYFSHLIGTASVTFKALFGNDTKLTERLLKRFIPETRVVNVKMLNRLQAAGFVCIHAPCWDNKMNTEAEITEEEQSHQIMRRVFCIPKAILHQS

CC(C)c1ccc(-n2cc(C(=O)NCc3ccc(Cl)cc3)c(=O)c3cc(CN4CCOCC4)ccc32)cc1 [Example 5, N-(4-Chlorobenzyl)-1-(4-isopropylphenyl)-6-(4-morpholinylmethyl)-4-oxo-1,4-dihydro-3-quinolinecarboxamnide]
IC50 (HCMV polymerase): 4 µM | melting point: 199 to 203 °C

O=C(NCc1ccc(Cl)cc1)c1cn(-c2ccc(Cl)cc2)c2ccc(CN3CCOCC3)cc2c1=O [Example 4, N-(4-Chlorobenzyl)-1-(4-chlorophenyl)-6-(4-morpholinylmethyl)-4-oxo-1,4-dihydro-3-quinolinecarboxamide]
IC50 (HCMV polymerase): 1.1 µM | melting point: 189 to 191 °C

O=C(NCc1ccc(Cl)cc1)c1cn(-c2ccc3c(c2)CCC3)c2ccc(CN3CCOCC3)cc2c1=O [Example 9, N-(4-Chlorobenzyl)-1-(2,3-dihydro-1H-inden-5-yl)-6-(4-morpholinylmethyl)-4-oxo-1,4-dihydro-3-quinolinecarboxamide]
IC50 (HCMV polymerase): 1.32 µM | melting point: 123 to 125 °C

O=C(NCc1ccc(F)cc1)c1cn(-c2cccc(CCO)c2)c2ccc(CN3CCOCC3)cc2c1=O [Example 15, N-(4-Fluorobenzyl)-1-(3-(2-hydroxyethyl)phenyl)-6-(4-morpholinylmethyl)-4-oxo-1,4-dihydro-3-quinolinecarboxamide]
IC50 (HCMV polymerase): 1.7 µM | melting point: 128 to 132 °C

O=C(NCc1ccc(Cl)cc1)c1cn(-c2ccccc2CO)c2ccc(CN3CCOCC3)cc2c1=O [Example 8, N-(4-Chlorobenzyl)-1-(2-(hydroxymethyl)phenyl)-6-(4-morpholinylmethyl)-4-oxo-1,4-dihydro-3-quinolinecarboxamide]
IC50 (HCMV polymerase): 1.47 µM | melting point: 162 to 163 °C

O=C(NCc1ccc(Cl)cc1)c1cn(-c2ccc3[nH]ccc3c2)c2ccc(CN3CCOCC3)cc2c1=O [Example 11, N-(4-Chlorobenzyl)-1-(1H-indol-5-yl)-6-(4-morpholinylmethyl)-4-oxo-1,4-dihydro-3-quinolinecarboxamide]
IC50 (HCMV polymerase): 1.18 µM | melting point: 241 to 243 °C

O=C(NCc1ccc(Cl)cc1)c1cn(-c2ccc3c(c2)OCO3)c2ccc(CN3CCOCC3)cc2c1=O [Example 10, 1-(1,3-Benzodioxol-5-yl)-N-(4-chlorobenzyl)-6-(4-morpholinylmethyl)-4-oxo-1,4-dihydro-3-quinolinecarboxamide]
IC50 (HCMV polymerase): 0.89 µM | melting point: 188 to 189 °C

COc1cccc(-n2cc(C(=O)NCc3ccc(Cl)cc3)c(=O)c3cc(CN4CCOCC4)ccc32)c1 [Example 16, N-(4-Chlorobenzyl)-1-(3-methoxyphenyl)-6-(4-morpholinylmethyl)-4-oxo-1,4-dihydro-3-quinolinecarboxamide]
IC50 (HCMV polymerase): 1.9 µM | melting point: 110 to 113 °C

O=C(NCc1ccc(Cl)cc1)c1cn(-c2cccc(C#CCCCO)c2)c2ccc(CN3CCOCC3)cc2c1=O [Example 22]
IC50 (HCMV polymerase): 0.93 µM | melting point: 125 to 128 °C

O=C(NCc1ccc(Cl)cc1)c1cn(-c2cccc(CCCCO)c2)c2ccc(CN3CCOCC3)cc2c1=O [Example 24, N-(4-Chlorobenzyl)-1-(3-(4-hydroxybutyl)phenyl)-6-(4-morpholinylmethyl)-4-oxo-1,4-dihydro-3-quinolinecarboxamide]
IC50 (HCMV polymerase): 0.68 µM | melting point: 119 to 121 °C

O=C(NCc1ccc(Cl)cc1)c1cn(-c2cccc(O)c2)c2ccc(CN3CCOCC3)cc2c1=O [Example 13, N-(4-Chlorobenzyl)-I-(3-hydroxyphenyl)-6-(4-morpholinylmethyl)-4-oxo-1,4-dihydro-3-quinolinecarboxamide]
IC50 (HCMV polymerase): 0.73 µM | melting point: 248 to 250 °C | IC50 (VZV polymerase): 0.24 µM | IC50 (HSV polymerase): 0.54 µM

O=C(NCc1ccc(Cl)cc1)c1cn(-c2ccc(N3CCOCC3)cc2)c2ccc(CN3CCOCC3)cc2c1=O [Example 18, N-(4-Chlorobenzyl)-6-(4-morpholinylmethyl)-1-(4-(4-morpholinyl)phenyl)-4-oxo-1,4-dihydro-3-quinolinecarboxamide]
IC50 (HCMV polymerase): 1.21 µM | melting point: 162 to 164 °C

O=C(NCc1ccc(Cl)cc1)c1cn(-c2cccc(CCCO)c2)c2ccc(CN3CCOCC3)cc2c1=O [Example 25, N-(4-Chlorobenzyl)-1-[3-(3-hydroxypropyl)phenyl]-6-(4-morpholinylmethyl)-4-oxo-1,4-dihydro-3-quinolinecarboxamide]
IC50 (HCMV polymerase): 1.08 µM | melting point: 115 to 118 °C | IC50 (VZV polymerase): 0.48 µM | IC50 (HSV polymerase): 0.98 µM

Cc1ccccc1-n1cc(C(=O)NCc2ccc(Cl)cc2)c(=O)c2cc(CN3CCOCC3)ccc21 [Example 2, N-(4-Chlorobenzyl)-1-(2-methylphenyl)-6-(4-morpholinylmethyl)-4-oxo-1,4-dihydro-3-quinolinecarboxamide]
IC50 (HCMV polymerase): 3 µM | melting point: 148 to 150 °C

O=C(NCc1ccc(Cl)cc1)c1cn(-c2cccc(C#CCO)c2)c2ccc(CN3CCOCC3)cc2c1=O [Example 20, N-(4-Chlorobenzyl)-1-(3-(3-hydroxy-1-propynyl)phenyl)-6-(4-morpholinylmethyl)-4-oxo-1,4-dihydro-3-quinolinecarboxamide]
IC50 (HCMV polymerase): 0.57 µM | melting point: 145 to 148 °C | IC50 (VZV polymerase): 0.29 µM | IC50 (HSV polymerase): 0.59 µM

O=C(NCc1ccc(Cl)cc1)c1cn(-c2ccc(F)c(F)c2)c2ccc(CN3CCOCC3)cc2c1=O [Example 19, N-(4-Chlorobenzyl)-1-(3,4-difluorophenyl)-6-(4-morpholinylmethyl)-4-oxo-1,4-dihydro-3-quinolinecarboxamide]
IC50 (HCMV polymerase): 1.05 µM | melting point: 107 to 110 °C

O=C(NCc1ccc(Cl)cc1)c1cn(-c2cccc(CO)c2)c2ccc(CN3CCOCC3)cc2c1=O [Example 17, N-(4-Chlorobenzyl)-1-(3-(hydroxymethyl)phenyl)-6-(4-morpholinylmethyl)-4-oxo-1,4-dihydro-3-quinolinecarboxamide]
IC50 (HCMV polymerase): 0.74 µM | melting point: 119 to 121 °C | IC50 (VZV polymerase): 0.31 µM | IC50 (HSV polymerase): 0.44 µM

O=C(NCc1ccc(F)cc1)c1cn(-c2ccc(Cl)cc2)c2ccc(CN3CCOCC3)cc2c1=O [Example 7, N-(4-Fluorobenzyl)-1-(4-chlorophenyl)-6-(4-morpholinylmethyl)-4-oxo-1,4-dihydro-3-quinolinecarboxamide]
IC50 (HCMV polymerase): 2 µM

O=C(NCc1ccc(Cl)cc1)c1cn(-c2cccc(I)c2)c2ccc(CN3CCOCC3)cc2c1=O [Example 3, N-(4-Chlorobenzyl)-1-(3-iodophenyl)-6-(4-morpholinylmethyl)-4-oxo-1,4-dihydro-3-quinolinecarboxamide]
IC50 (HCMV polymerase): 2.1 µM | melting point: 176 to 179 °C

O=C(NCc1ccc(Cl)cc1)c1cn(-c2cccc(CCCCCO)c2)c2ccc(CN3CCOCC3)cc2c1=O [Example 23, N-(4-Chlorobenzyl)-1-(3-(5-hydroxypentyl)phenyl)-6-(4-morpholinylmethyl)-4-oxo-1,4-dihydro-3-quinolinecarboxamide]
IC50 (HCMV polymerase): 0.76 µM | melting point: 142 to 144 °C

O=C(NCc1ccc(Cl)cc1)c1cn(-c2ccccc2)c2ccc(CN3CCOCC3)cc2c1=O [Example 1, N-(4-Chlorobenzyl)-6-(4-morpholinylmethyl)-4-oxo-1-phenyl-1,4-dihydro-3-quinolinecarboxamide]
IC50 (HCMV polymerase): 0.81 µM | melting point: 168 to 169 °C | IC50 (VZV polymerase): 0.4 µM | IC50 (HSV polymerase): 0.55 µM

COc1ccc(-n2cc(C(=O)NCc3ccc(Cl)cc3)c(=O)c3cc(CN4CCOCC4)ccc32)cc1 [Example 6, N-(4-Chlorobenzyl)-1-(4-methoxyphenyl)-6-(4-morpholinylmethyl)-4-oxo-1,4-dihydro-3-quinolinecarboxamide]
IC50 (HCMV polymerase): 1.1 µM | melting point: 189 to 191 °C

O=C(NCc1ccc(F)cc1)c1cn(-c2ccc3[nH]ccc3c2)c2ccc(CN3CCOCC3)cc2c1=O [Example 12, N-(4-Fluorobenzyl)-1-(1 H-indol-5-yl)-6-(4-morpholinylmethyl)-4-oxo-1,4-dihydro-3-quinolinecarboxamide]
IC50 (HCMV polymerase): 2.2 µM | melting point: 223 to 225 °C

O=C(NCc1ccc(Cl)cc1)c1cn(-c2cccc(C#CCCO)c2)c2ccc(CN3CCOCC3)cc2c1=O [Example 21, N-(4-Chlorobenzyl)-1-(3-(4-hydroxy-1-butynyl)phenyl)-6-(4-morpholinylmethyl)-4-oxo-1,4-dihydro-3-quinolinecarboxamide]
IC50 (HCMV polymerase): 1.13 µM | melting point: 125 to 128 °C
